{"source": "patent US8283322B2", "about": "“Formulations for nonsurgical exogenous crosslink therapy” (Orthopeutics, LP, priority 2008, dated 2012)", "key": {"[1]": {"system": "homogenized annulus tissue", "assay": "Crosslinking of annulus tissue quantified by hydroxyproline release upon collagenase digestion", "procedure": "(§1) Increasing concentrations of protein crosslinkers were added to homogenized annulus tissue and incubated for either 1 hr (EDC, GP, MG, PA and GA), 2 hrs (TG) or 6 hrs (DT and LT). Crosslinking was quantified by determining the amount of hydroxyproline (HYP) released from the tissue by collagenase digestion.\n(§2) Homogenized annulus tissue was treated with sub-saturating concentrations of various crosslinkers at varying pH and incubated for either 1 hr (EDC, GP, MG, PA and GA), 2 hrs (TG) or 6 hrs (LT). Crosslinking was quantified by determining the amount of hydroxyproline (HYP) released from the tissue by collagenase digestion.\n(§3) In order to determine the effective concentration range for various crosslinking reagents we incubated samples of annulus tissue in increasing concentrations of either genipin (GP), methylglyoxal (MG), proanthrocyanidin (PA), L-threose (LT), D-threose (DT), dimethylaminopropyl) carbodiimide hydrochloride (EDC) or transglutaminase (TG). Crosslinking efficiency was measured indirectly by monitoring the release of peptides containing hydroxyproline upon subsequent digestion with collagenase. Glutaraldehyde (GA), a commonly used, but highly toxic protein crosslinker was used as a positive control.\n(§4) To test this hypothesis, the inventors subjected calf annulus fibrosus tissue to crosslinking with sub-saturating levels of our reagents at varying pH. In order to maintain optimal buffering capacity at each pH, different buffers were selected for each point."}, "[2]": {"system": "calf intervertebral discs", "assay": "Hydration change / fluid flux of disc regions (soaking, creep loading, resoaking)", "design": "species or system calf (4 month-old bovine)", "conditions": "for % increase by Genipin, NP: flux into and out of the central nucleus region vs control flux", "excerpt": "By measuring the change in hydration of different regions of the intervertebral disc (nucleus pulposus, inner annulus, and outer annulus fibrosus) prior to and after periods of soaking, sustained compressive loading, and resoaking, the fluid flux to and from different regions can be determined. By comparing these measurements between control discs and discs treated with crosslinking reagents known to have minimal cytotoxicity, we see the effect of crosslinking treatment on fluid flux and permeability. A total of 24 calf (4 month-old bovine) intervertebral discs were used for this study. Water content of three different areas of the […] tissue were tested-the nucleus pulposus, inner annulus fibrosus and outer annulus fibrosus. Hydration change was determined by weighing the specimen using a micro-balance (sensitivity: 0.1 mg). Water content (M) was calculated as: M=(Wet Weight-Dry Weight)/Wet Weight=g H2O/g Wet Weight The drying procedure consisted of putting the specimens in the oven with a controlled temperature of 90° C. for 24 hrs. The specimens were separated into four tests: • 1. Group A: Three specimens were in this group. It served as a control group. The specimens were soaked in PBS (phosphate buffered saline) for 1 day and then the hydration analysis was performed. • 2. Group B1: Four specimens were in this group. In addition to the one day PBS soaking, the specimens soaked in PBS for 2 more days as a control and then the hydration analysis was performed. • Group B2: Five specimens were in this group. In addition to the one day PBS soaking, the specimens were soaked in 0.33% genipin solution for 2 days and then the hydration analysis was performed. • 3. In group C, a small daytime amount of constant compressive loading (creep) was simulated. • C1: Three specimens were in this group. The specimens were soaked in PBS for 3 days and then […] of compression was applied by a materials testing machine for 1 hour. The disc was compressed in a 5 degree of flexion posture produced by two rollers attached to the loading ram of the materials testing machine. The hydration analysis was performed immediately after the creep loading. • C2: Three specimens were in this group. The specimens were soaked in 0.33% Genipin solution for 2 days after 1 day of PBS soaking and performed identical creep loading with […] compressive load. The hydration analysis was performed immediately after the creep loading. • 4. In group D, the imbibition of water following a period of compressive loading that typically occurs in the night time as a person is in a recumbent posture was simulated. • D1: The specimens were soaked in PBS solution for 3 days and then 1 hr of creep loading at […] was applied. After the creep loading, the specimens were placed in a container in 1 PBS for one more day followed by the hydration analysis. • D2: Three specimens were included and were soaked in 0.33% genipin solution for 2 days after one day of PBS soaking. A creep load of […] for 1 hr was then applied. The specimens were put in PBS for another day followed by the hydration analysis."}, "[3]": {"system": "homogenized annulus tissue", "conditions": "bovine", "procedure": "as §1, §2, §3, §4"}, "[4]": {"system": "lumbar intervertebral joints (posterior annulus)", "assay": "Indentation testing (stress relaxation, hardness) with compression/flexion fatigue cycling", "conditions": "soaking the calf disc tissue in 0.33% concentration of genipin", "excerpt": "Thirty-three lumbar intervertebral joints were obtained from ten four-month-old calf spines. The intervertebral joints were arbitrarily divided into 3 groups: untreated controls-12 specimens, Genipin treatment 1 (G1)-6 specimens, and Genipin treatment 2 (G2)-13 specimens. The G1 treatment involved 72 hrs of soaking the whole specimen in PBS with a 0.033% concentration of Genipin. Similarly, the G2 treatment involved 72 hrs of soaking whole specimens in PBS with 0.33% concentration of Genipin. 0.33% Genipin in PBS is produced by dilution of 50 ml of 10×. PBS (Phosphate Buffered Saline) with distilled water by a factor of 10 to give 500 ml (500 gm) of PBS and mixing in 1.65 grams of genipin to produce the 0.33% (wt %, gm/gm) solution. […] Some controls were not subjected to soaking prior to fatigue testing. Others were soaked in a saline solution for 72 hrs. Water mass loss experiments were conducted to establish the equivalency of outer annulus hydration between the genipin soaked and 0.9% saline soaked controls. The selection of treatments was randomized by spine and level. […]\nFollowing initial indentation testing, the specimen was loaded repetitively in flexion-compression at 200 N for 3000 cycles at a rate of 0.25 Hz. […] Several statistical measures were calculated to evaluate the significance of the results. […]"}, "[5]": {"conditions": "combined fluid flow out (creep) and in (resoaking)"}}, "data": [{"smiles": "COC(=O)C1=CO[C@@H](O)[C@@H]2C(CO)=CC[C@H]12", "note": "[Genipin, genipin]", "values": [{"measurement": "effect of buffer (EPPS vs Tris) on crosslinking", "setting": "[1]; 100 mM EPPS or 100 mM Tris, GP at pH 9", "result": "more effective in EPPS buffer than in Tris"}, {"measurement": "effect of phosphate on crosslinking", "setting": "[1]; Tris buffer pH 8, increasing concentrations of sodium phosphate", "result": "dose-dependent enhancement"}, {"measurement": "pH", "setting": "[1]; optimized pH for crosslinking, Table 5", "result": "8-9"}, {"measurement": "[Saturating]", "setting": "[1]; saturating crosslinker concentration, Table 5", "result": "5 to 10", "unit": "mM"}, {"measurement": "pH dependence of crosslinking", "setting": "[1]; sub-saturating crosslinker, pH 4-9 with a different buffer at each pH (FIG. 2, FIG. 3)", "result": "function better in disc tissue at the higher pH levels"}, {"measurement": "Genipin Flux, Inner AF", "setting": "[2]; [5]", "result": 0.1008}, {"measurement": "Genipin Flux, NP", "setting": "[2]; [5]", "result": 0.04983}, {"measurement": "Genipin Flux, Outer AF", "setting": "[2]; [5]", "result": 0.05294}, {"measurement": "% increase by Genipin, NP", "setting": "[2]", "result": 63.7, "unit": "%"}, {"measurement": "% increase by Genipin, NP", "setting": "[2]; listed as genipin", "result": 64, "unit": "%"}, {"measurement": "% increase by Genipin, Inner AF", "setting": "[2]; flux vs control flux", "result": 17.3, "unit": "%"}, {"measurement": "% increase by Genipin, Outer AF", "setting": "[2]; flux vs control flux", "result": 5.7, "unit": "%"}, {"measurement": "T1/2", "setting": "[3]", "result": "10 to 18", "unit": "min"}, {"measurement": "reduction in viscoelastic degradation", "setting": "[4]", "result": "More than a three-fold reduction"}]}]}
